These results are taken from ChEMBL document CHEMBL1121371, “Antihypertensive 5,6-diarylpyridazin-3-ones” (1980).

In this test the test system is Rattus norvegicus. The test is described as follows: Antihypertensive activity in spontaneously hypertensive rats, measured as average blood pressure at 100 mg/kg, p.o. before predose; No significant lowering of blood pressure. Details: dose 100 mg/kg. The class given is functional, organism-based.
With `CC(C)C(=O)c1c(-c2ccc(Cl)cc2)c(-c2ccc(Cl)cc2)nn(CCO)c1=O`, the BP result was “Not significant”. As for `CC(=O)Cn1nc(-c2ccc(Cl)cc2)c(-c2ccc(Cl)cc2)c(C#N)c1=O`, the BP entry was “Not significant”. Turning to `CC(=O)c1c(-c2ccc(Cl)cc2)c(-c2ccc(Cl)cc2)nn(CCI)c1=O`, the BP entry was “Not significant”. `N#Cc1c(-c2ccccc2Cl)c(-c2ccccc2Cl)nn(CCO)c1=O`: the BP entry is “Not significant”. Turning to `CC(=O)c1c(-c2ccc(Cl)cc2)c(-c2ccc(Cl)cc2)nn(CCCl)c1=O`, the BP result was “Not significant”. As to `CC(=O)c1c(-c2ccc(O)cc2)c(-c2ccc(O)cc2)nn(CCO)c1=O`, the BP result is “Not significant”.

On to `COc1ccccc1-c1c(-c2ccccc2)c(-c2ccccc2)nn(CCO)c1=O`, for which the BP result is “Not significant”. With `CCn1nc(-c2ccc(Cl)cc2)c(-c2ccc(Cl)cc2)c(C(C)=O)c1=O`, the BP entry was “Not significant”. For `COc1ccccc1-c1c(O)nnc(-c2ccccc2)c1-c1ccccc1` the value was “Not significant”; for `CC(=O)c1c(-c2ccc(Cl)cc2)c(-c2ccc(Cl)cc2)nn(CC(N)=O)c1=O`, “Not significant”; for `Cc1ccc(-c2nnc(O)c(C#N)c2-c2ccc(C)cc2)cc1`, “Not significant”.

In the case of `CC(=O)c1c(O)nnc(-c2ccccc2)c1-c1ccccc1`, the BP entry was “Not significant”.

For the compound `C/C(=N\N)c1c(O)nnc(-c2ccccc2)c1-c1ccccc1`, the BP result was “Not significant”. As for `O=c1c(-c2ccccc2)c(-c2ccc(Cl)cc2)c(-c2ccc(Cl)cc2)nn1CCO`, the entry is “Not significant”; as for `CC(=O)c1c(-c2ccc(Cl)cc2)c(-c2ccc(Cl)cc2)nn(CC(O)CCl)c1=O` (configuration not stated), “Not significant”. `Cn1nc(-c2ccccc2)c(-c2ccccc2)c(C#N)c1=O`: the BP entry was “Not significant”.

Take `O=c1c(-c2ccc3ccccc3c2)c(-c2ccccc2)c(-c2ccccc2)nn1CCO`: the BP entry is “Not significant”. Regarding `COc1ccc(OC)c(-c2c(O)nnc(-c3ccccc3)c2-c2ccccc2)c1`, the BP entry is “Not significant”.

For `Oc1nnc(-c2ccccc2)c(-c2ccccc2)c1-c1ccccc1`, the BP result is “Not significant”. For the compound `CC(=O)c1c(-c2ccc(Cl)cc2)c(-c2ccc(Cl)cc2)nn(CCCCCCN2C(=O)c3ccccc3C2=O)c1=O`, the BP entry was “Not significant”. With `COc1ccc(-c2c(-c3ccccc3)c(-c3ccccc3)nn(CCO)c2=O)cc1`, the BP entry was “Not significant”. On to `CCCC(=O)c1c(-c2ccc(Cl)cc2)c(-c2ccc(Cl)cc2)nn(CCO)c1=O`, for which the BP entry is “Not significant”. `CC(=O)c1c(-c2ccccc2)c(-c2ccccc2)nn(C)c1=O`: the BP result is “Not significant”. For the compound `CCOC(=O)NCCn1nc(-c2ccc(Cl)cc2)c(-c2ccc(Cl)cc2)c(C(C)=O)c1=O`, the BP result was “Not significant”.

In the case of `CCCC(=O)c1c(-c2ccc(Cl)cc2)c(-c2ccc(Cl)cc2)nn(C(C)CO)c1=O` (configuration not stated), the BP result was “Not significant”. As for `O=S(=O)(c1ccccc1)c1c(O)nnc(-c2ccccc2)c1-c1ccccc1`, the entry is “Not significant”; as for `COC(=O)Cn1nc(-c2ccc(Cl)cc2)c(-c2ccc(Cl)cc2)c(C#N)c1=O`, “Not significant”; as for `CC(=O)Nc1ccc(-c2c(-c3ccc(Cl)cc3)c(-c3ccc(Cl)cc3)nn(CCO)c2=O)cc1`, “Not significant”. As for `CCOC(=O)Cn1nc(-c2ccc(OC)cc2)c(-c2ccc(OC)cc2)c(C(C)=O)c1=O`, the entry is “Not significant”; as for `CC(=O)c1c(-c2ccc(Cl)cc2)c(-c2ccc(Cl)cc2)nn(CCCN(C)C)c1=O`, “Not significant”. With `O=c1cc(-c2ccc(Cl)cc2)c(-c2ccc(Cl)cc2)nn1CCO`, the BP result is “Not significant”. For `CC(=O)c1c(-c2ccc(Cl)cc2)c(-c2ccc(Cl)cc2)nn(CC(=O)O)c1=O`, the BP result was “Not significant”. Turning to `COc1ccc(-c2nn(CCO)c(=O)c(C(C)=O)c2-c2ccc(OC)cc2)cc1`, the BP entry is “Not significant”. `CCCC(=O)c1c(O)nnc(-c2ccc(Cl)cc2)c1-c1ccc(Cl)cc1`: the BP result was “Not significant”. `CC(=O)c1c(-c2ccc(Cl)cc2)c(-c2ccc(Cl)cc2)nn(CCN2C(=O)c3ccccc3C2=O)c1=O`: the BP entry was “Not significant”.

Take `O=C(c1ccccc1)c1c(-c2ccccc2)c(-c2ccccc2)nn(CCO)c1=O`: the BP result is “Not significant”. Regarding `C=Cn1nc(-c2ccc(Cl)cc2)c(-c2ccc(Cl)cc2)c(C(C)=O)c1=O`, the BP entry is “Not significant”. As to `Oc1nnc(-c2ccccc2)c(-c2ccccc2)c1-c1ccc(Br)cc1`, the BP result was “Not significant”. As for `COc1ccc(-c2nnc(O)c(C(C)=O)c2-c2ccc(OC)cc2)cc1`, the BP entry is “Not significant”.

As for `CC(=O)c1c(-c2ccc(O)cc2)c(-c2ccc(O)cc2)nn(CC[n+]2ccccc2)c1=O`, the BP entry is “Not significant”.

On to `CC(=O)c1c(O)nnc(-c2ccc(Cl)cc2)c1-c1ccc(Cl)cc1`, for which the BP entry is “Not significant”. On to `O=C(O)CCCn1nc(-c2ccccc2)c(-c2ccccc2)c(-c2ccccc2)c1=O`, for which the BP entry is “Not significant”. For the compound `N#Cc1c(-c2ccc(Cl)c(Cl)c2)c(-c2ccc(Cl)c(Cl)c2)nn(CCO)c1=O`, the BP result was “Not significant”. Consider `COc1ccc(-c2c(O)nnc(-c3ccccc3)c2-c2ccccc2)cc1`, for which the BP entry was “Not significant”. `CC(=O)c1c(-c2ccc(Cl)cc2)c(-c2ccc(Cl)cc2)nn(CC(C)O)c1=O` (configuration not stated): the BP entry is “Not significant”. Consider `CC(O)c1c(-c2ccccc2)c(-c2ccccc2)nn(CCO)c1=O` (configuration not stated), for which the BP result was “Not significant”.

Regarding `O=C(O)c1c(O)nnc(-c2ccc(Cl)cc2)c1-c1ccc(Cl)cc1`, the BP result was “Not significant”. Regarding `COc1ccc(OC)c(-c2c(-c3ccccc3)c(-c3ccccc3)nn(CCO)c2=O)c1`, the BP result was “Not significant”.

Take `CC(=O)c1c(-c2ccc(Cl)cc2)c(-c2ccc(Cl)cc2)nn(CC[N+](C)(C)C)c1=O`: the BP entry is “Not significant”. In the case of `O=c1c(-c2ccc(Br)cc2)c(-c2ccccc2)c(-c2ccccc2)nn1CCO`, the BP entry is “Not significant”. Turning to `N#Cc1c(O)nnc(-c2ccccc2Cl)c1-c1ccccc1Cl`, the BP result is “Not significant”. With `COc1cccc(-c2c(-c3ccccc3)c(-c3ccccc3)nn(CCO)c2=O)c1`, the BP entry is “Not significant”. For `O=C(O)c1c(-c2ccc(Cl)cc2)c(-c2ccc(Cl)cc2)nn(CCO)c1=O`, the BP result is “Not significant”. `CC(=O)c1c(-c2ccccc2)c(-c2ccccc2)nn(CCCC(=O)O)c1=O`: the BP entry is “Not significant”. For `COc1ccc(-c2c(-c3ccccc3)c(-c3ccccc3)nn(CCO)c2=O)cc1OC` the value was “Not significant”. As for `Cc1ccc(-c2nn(CCO)c(=O)c(-c3ccccc3)c2-c2ccc(C)cc2)cc1`, the BP entry was “Not significant”. As for `CC(=O)c1c(O)nnc(-c2ccc(F)cc2)c1-c1ccc(F)cc1`, the entry is “Not significant”; as for `CC(=O)c1c(-c2ccc(Cl)cc2)c(-c2ccc(Cl)cc2)nn(CCCCCO)c1=O`, “Not significant”. As for `Oc1nnc(-c2ccccc2)c(-c2ccccc2)c1-c1cccc(Cl)c1`, the entry is “Not significant”; as for `CCOC(=O)c1c(-c2ccc(Cl)cc2)c(-c2ccc(Cl)cc2)nn(CCO)c1=O`, “Not significant”. On to `N#Cc1c(-c2ccc(F)cc2)c(-c2ccc(F)cc2)nn(CCO)c1=O`, for which the BP result is “Not significant”. In the case of `CC(=O)c1c(-c2ccc(Cl)cc2)c(-c2ccc(Cl)cc2)nn(CC2CO2)c1=O` (configuration not stated), the BP result is “Not significant”. For `Cc1ccc(-c2nnc(O)c(-c3ccccc3)c2-c2ccc(C)cc2)cc1` the value was “Not significant”; for `COc1cc(-c2c(O)nnc(-c3ccc(Cl)cc3)c2-c2ccc(Cl)cc2)cc(OC)c1OC`, “Not significant”.

With `N#Cc1c(O)nnc(-c2ccc(Br)cc2)c1-c1ccc(Br)cc1`, the BP entry was “Not significant”. Consider `N#Cc1c(-c2ccc(Cl)cc2)c(-c2ccc(Cl)cc2)nn(CCCl)c1=O`, for which the BP entry was “Not significant”.

As to `CCOC(=O)CCCn1nc(-c2ccccc2)c(-c2ccccc2)c(C(C)=O)c1=O`, the BP entry is “Not significant”. For the compound `N#Cc1c(O)nnc(-c2ccc(Cl)c(Cl)c2)c1-c1ccc(Cl)c(Cl)c1`, the BP result was “Not significant”. In the case of `Cc1ccc(-c2c(O)nnc(-c3ccccc3)c2-c2ccccc2)cc1`, the BP entry is “Not significant”. Take `CC(=O)c1c(-c2ccc(OCc3ccccc3)cc2)c(-c2ccc(OCc3ccccc3)cc2)nn(CCO)c1=O`: the BP result is “Not significant”.

Consider `O=c1c(-c2cccc(Cl)c2)c(-c2ccccc2)c(-c2ccccc2)nn1CCO`, for which the BP result was “Not significant”. With `COc1ccc(-c2nn(CCO)c(=O)c(C#N)c2-c2ccc(OC)cc2)cc1`, the BP entry was “Not significant”.

As for `CC(=O)c1c(-c2ccc(Cl)cc2)c(-c2ccc(Cl)cc2)nn(CC(O)CNC(C)C)c1=O` (configuration not stated), the BP entry is “Not significant”. Take `Oc1nnc(-c2ccccc2)c(-c2ccccc2)c1-c1ccc(Cl)cc1`: the BP result is “Not significant”. For `COC(=O)Cn1nc(-c2ccc(Cl)cc2)c(-c2ccc(Cl)cc2)c(C(C)=O)c1=O` the value was “Not significant”. As for `CCC(=O)c1c(-c2ccc(Cl)cc2)c(-c2ccc(Cl)cc2)nn(CCO)c1=O`, the BP result is “Not significant”. As to `CCOC(=O)CCCn1nc(-c2ccc(Cl)cc2)c(-c2ccc(Cl)cc2)c(C#N)c1=O`, the BP result is “Not significant”.
